Where two headings read alike, the source gives them in different places.
What was measured:
[1] = test system: K562 (human chronic myelogenous leukemia) cells; test: Cell Titer Glo 2.0 cell viability assay; type: cell-based; details: Homo sapiens, K562, 72 h, K562 cells, 72 hours, Cell Titer Glo 2.0; read-out: K562 GI50
MYB mRNA = test: RT-qPCR splicing assay, MYB canonical junction (CJ) and alternative junction (AJ) mRNA; type: cell-based, human; details: for AC50: increase in MYB alternative junction (AJ) mRNA, read-out: MYB AJ AC50
Procedure, shortened: (§1)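 Read-out is one-step RT-qPCR on cell lysates detecting the exon-exon junction of each isoform, normalized to a housekeeping gene (PPIA in A673, GAPDH or GUSB in K562).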

Target C = test: RT-qPCR splicing assay panel, Target C canonical junction (CJ) mRNA; type: cell-based, human; details: Table 5 panel, canonical junction qPCR, compound concentration having 50% response in CJ decrease, read-out: Target C IC50 (decrease in CJ mRNA levels)
Procedure, shortened: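 A673 cells (DMEM/10% FBS) or K562 cells (IMDM/10% FBS) were treated 24 h at 37° C. with 11-point 3-fold dilutions (top 10 uM, ≤0.25% DMSO). Canonical-junction mRNA was quantified in lysates by RT-qPCR, normalized to GAPDH, GUSB or PPIA.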

HTT mRNA = test: RT-qPCR splicing assay, HTT canonical junction (CJ) and alternative junction (AJ) mRNA; type: cell-based, human; details: for AC50: increase in HTT alternative junction (AJ) mRNA, read-out: HTT AJ AC50
Procedure, shortened: as §1

[2] = Homo sapiens, Table 5 panel, canonical junction qPCR, compound concentration having 50% response in CJ decrease, read-out: MYB IC50 (decrease in CJ mRNA levels)
[3] = Homo sapiens, decrease in MYB canonical junction (CJ) mRNA, RT-qPCR, read-out: MYB CJ IC50
[4] = Homo sapiens, decrease in HTT canonical junction (CJ) mRNA, RT-qPCR, read-out: HTT CJ IC50
[5] = Homo sapiens, Table 5 panel, canonical junction qPCR, compound concentration having 50% response in CJ decrease, read-out: HTT IC50 (decrease in CJ mRNA levels)

Structure (SMILES) | GI50 [1] | IC50 (MYB mRNA; [2]) | IC50 (MYB mRNA; [3]) | AC50 (MYB mRNA; Homo sapiens, RT-qPCR) | IC50 (Target C; Homo sapiens) | IC50 (HTT mRNA; [4]) | AC50 (HTT mRNA; Homo sapiens, RT-qPCR) | IC50 (HTT mRNA; [5]) | IC50 (MYB mRNA; Table 5 panel, canonical junction qPCR, compound concentration having 50% response in CJ decrease, read-out: MYB IC50 (decrease in CJ mRNA levels)) | IC50 (MYB mRNA; decrease in MYB canonical junction (CJ) mRNA, RT-qPCR, read-out: MYB CJ IC50) | AC50 (MYB mRNA; RT-qPCR) | IC50 (Target C) | IC50 (HTT mRNA; Table 5 panel, canonical junction qPCR, compound concentration having 50% response in CJ decrease, read-out: HTT IC50 (decrease in CJ mRNA levels)) | IC50 (HTT mRNA; decrease in HTT canonical junction (CJ) mRNA, RT-qPCR, read-out: HTT CJ IC50) | AC50 (HTT mRNA; RT-qPCR)
Cc1cn2cc(-c3ccc4c(=O)n(C5CCNCC5)ncc4c3)ncc2n1 [Compound 255] | 100 to 1000 nM | 1000 to 10000 nM | 1000 to 10000 nM | 1000 to 10000 nM | > 10000 nM | 1000 to 10000 nM | 1000 to 10000 nM | 1000 to 10000 nM |  |  |  |  |  |  | 
Cc1cn2nc(-c3cc(F)c4c(=O)n(C5CCNCC5)cnc4c3)cc(C)c2n1 [Compound 243] | < 100 nM | < 100 nM | < 100 nM | < 100 nM | < 100 nM | < 100 nM | < 100 nM | < 100 nM |  |  |  |  |  |  | 
Cc1cn2cc(-c3ccc4c(c3)CCN(C3CCNCC3)C4=O)cc(C(F)(F)F)c2n1 [Compound 252] | 1000 to 10000 nM | 1000 to 10000 nM | 1000 to 10000 nM | 1000 to 10000 nM | > 10000 nM | > 10000 nM | > 10000 nM | > 10000 nM |  |  |  |  |  |  | 
Cn1cc2cc(-c3ccc4c(=O)n(C5CCNCC5)ncc4c3)cc(F)c2n1 [Compound 249] | 1000 to 10000 nM | 1000 to 10000 nM | 1000 to 10000 nM | 1000 to 10000 nM | 1000 to 10000 nM | 1000 to 10000 nM | 1000 to 10000 nM | 1000 to 10000 nM |  |  |  |  |  |  | 
Cc1cn2nc(-c3ccc4c(=O)n(C5CCNC5)ncc4c3)cc(C)c2n1 (stereo not shown) [Compound 264] | 1000 to 10000 nM | 1000 to 10000 nM | 1000 to 10000 nM | 1000 to 10000 nM | > 10000 nM | 1000 to 10000 nM | 1000 to 10000 nM | 1000 to 10000 nM |  |  |  |  |  |  | 
Cc1cn2cc(-c3ccc4c(=O)n(C5CCNCC5)cnc4c3)c(C)cc2n1 [Compound 244] | > 10000 nM | > 10000 nM | > 10000 nM | > 10000 nM | > 10000 nM | > 10000 nM | > 10000 nM | > 10000 nM |  |  |  |  |  |  | 
Cc1cn2nc(-c3ccc4c(=O)n(C5CCNCC5)ncc4c3)nc2c(C)n1 [Compound 259] | 100 to 1000 nM | 100 to 1000 nM | 100 to 1000 nM | 100 to 1000 nM | 100 to 1000 nM | 100 to 1000 nM | 100 to 1000 nM | 100 to 1000 nM |  |  |  |  |  |  | 
Cc1cn2cc(-c3ccc4c(=O)n(C5CCNCC5)ncc4c3)cc(F)c2n1 [Compound 248] | < 100 nM | 100 to 1000 nM | 100 to 1000 nM | 100 to 1000 nM | 100 to 1000 nM | 100 to 1000 nM | < 100 nM | < 100 nM |  |  |  |  |  |  | 
Cc1cn2cc(-c3ccc4c(=O)n(C5CCNCC5)ncc4c3)cc(C)c2n1 [Compound 257] | < 100 nM | 100 to 1000 nM | 100 to 1000 nM | 100 to 1000 nM | 1000 to 10000 nM | 100 to 1000 nM | 100 to 1000 nM | 100 to 1000 nM |  |  |  |  |  |  | 
Cn1cc2ccc(-c3ccc4c(=O)n(C5CCNCC5)ncc4c3)cc2n1 [Compound 263] | 1000 to 10000 nM | > 10000 nM | > 10000 nM | > 10000 nM | > 10000 nM | > 10000 nM | > 10000 nM | > 10000 nM |  |  |  |  |  |  | 
O=c1c2ccc(-c3cn[nH]c3)cc2cnn1C1CCNCC1 [Compound 261] | > 10000 nM | > 10000 nM | > 10000 nM | > 10000 nM | > 10000 nM | > 10000 nM | > 10000 nM | > 10000 nM |  |  |  |  |  |  | 
Cc1cn2cc(-c3ccc4c(=O)n(C5CCNCC5)ncc4c3)cc(Cl)c2n1 [Compound 256] | < 100 nM | 100 to 1000 nM | 100 to 1000 nM | 100 to 1000 nM | > 10000 nM | 100 to 1000 nM | 100 to 1000 nM | 100 to 1000 nM |  |  |  |  |  |  | 
Cc1cc(-c2ccc3c(=O)n(C4CCNCC4)ncc3c2)cc2cn(C)nc12 [Compound 251] | 1000 to 10000 nM | 100 to 1000 nM | 100 to 1000 nM | 100 to 1000 nM | 100 to 1000 nM | 100 to 1000 nM | 100 to 1000 nM | 100 to 1000 nM |  |  |  |  |  |  | 
Cc1cn2cc(-c3ccc4c(=O)n(C5CCNCC5)ncc4c3)cc(C(F)(F)F)c2n1 [Compound 262] | 100 to 1000 nM | 1000 to 10000 nM | 100 to 1000 nM | 1000 to 10000 nM | 1000 to 10000 nM | 1000 to 10000 nM | 1000 to 10000 nM | 1000 to 10000 nM |  |  |  |  |  |  | 
Cc1cn2cc(-c3ccc4c(=O)n(C5CCN(C)CC5)cnc4c3)c(C)cc2n1 [Compound 246] | 1000 to 10000 nM | 1000 to 10000 nM | 1000 to 10000 nM | 1000 to 10000 nM | 1000 to 10000 nM | 1000 to 10000 nM | 1000 to 10000 nM | 1000 to 10000 nM |  |  |  |  |  |  | 
Cc1nc2c(F)cc(-c3ccc4c(=O)n(C5CCNCC5)ncc4c3)cc2s1 [Compound 253] | 100 to 1000 nM | 1000 to 10000 nM | 1000 to 10000 nM | 1000 to 10000 nM | 1000 to 10000 nM | 1000 to 10000 nM | 1000 to 10000 nM | 1000 to 10000 nM |  |  |  |  |  |  | 
Cc1cn2cc(-c3ccc4c(c3)CCN(C3CCNCC3)C4=O)cc(F)c2n1 [Compound 247] | 100 to 1000 nM | 100 to 1000 nM | 100 to 1000 nM | 100 to 1000 nM | 1000 to 10000 nM | 1000 to 10000 nM | 1000 to 10000 nM | 1000 to 10000 nM |  |  |  |  |  |  | 
Cc1cn2nc(-c3ccc4c(=O)n(C5CCN(C)CC5)ncc4c3)cc(C)c2n1 [Compound 265] | 100 to 1000 nM | 100 to 1000 nM | < 100 nM | 100 to 1000 nM | 100 to 1000 nM | < 100 nM | < 100 nM | < 100 nM |  |  |  |  |  |  | 
Cc1cn2cc(-c3ccc4c(=O)n(C5CCNCC5)ncc4c3)c(C)cc2n1 [Compound 254] | 1000 to 10000 nM | 1000 to 10000 nM | 1000 to 10000 nM | 1000 to 10000 nM | 1000 to 10000 nM | 1000 to 10000 nM | 1000 to 10000 nM | 1000 to 10000 nM |  |  |  |  |  |  | 
Cc1nc2c(F)cc(-c3ccc4c(=O)n(C5CCNCC5)ncc4c3)cc2o1 [Compound 250] | < 100 nM | 100 to 1000 nM | 100 to 1000 nM | 100 to 1000 nM | 100 to 1000 nM | < 100 nM | < 100 nM | < 100 nM |  |  |  |  |  |  | 
Cc1nc2c(F)cc(-c3ccc4c(=O)n(C5CCNCC5)cnc4c3)cc2o1 [Compound 245] | 100 to 1000 nM | 100 to 1000 nM | 100 to 1000 nM | 100 to 1000 nM | 100 to 1000 nM | 100 to 1000 nM | 100 to 1000 nM | 100 to 1000 nM |  |  |  |  |  |  | 
Cc1cn2nc(-c3ccc4c(=O)n([C@@H]5CCNC6(CC6)C5)cnc4c3)cc(C)c2n1 [Compound 444] | 100 to 1000 nM |  |  |  |  |  |  |  | < 100 nM | < 100 nM | < 100 nM | 100 to 1000 nM | 100 to 1000 nM | 100 to 1000 nM | 100 to 1000 nM
Cc1cn2nc(-c3ccc4c(=O)n(C5CCNCC5)ncc4c3)cc2c(C)n1 [Compound 260] | 100 to 1000 nM | 1000 to 10000 nM | 100 to 1000 nM | 1000 to 10000 nM | 1000 to 10000 nM | 100 to 1000 nM | 100 to 1000 nM | 100 to 1000 nM |  |  |  |  |  |  | 

Reference: patent US20250332173A1, “COMPOUNDS AND METHODS FOR MODULATING NUCLEIC ACID SPLICING” (REMIX THERAPEUTICS INC., priority 2021, published 2025)
